Six compounds from publication PMC11364768 (Nature Communications, 2024) can be followed below.

Converted amounts (≈) assume the structure as drawn. No end group written: not given here.

For one data set, the system named is S. aureus. The experiment in a line: Bacterial resistance development, serial passage. It is filed as cell-based, Staphylococcus aureus. Conditions: passaged every 24 h, n = 4.
Data set [1] in a line: Blood test, RBC parameters after intraperitoneal injection. The data set is classed as in vivo, ICR mice. Conditions: mice, 24 h after intraperitoneal injection.
Another data set can be described thus: Organ. Conditions: mice, 10 mg/kg. It is filed as in vivo, ICR mice.
The test system of another data set is P. aeruginosa. The experiment in a line: Wound mouse model, bacterial load on the wound surface. Conditions: 10^7 CFU P. aeruginosa inoculated; 10 mg/kg applied to wound twice a day; n = 8. It is filed as in vivo, Female ICR mice.
Another data set concerns S. aureus (ATCC 25904). The experiment in a line: Minimal inhibition concentration. It is filed as cell-based. Conditions: Staphylococcus aureus, ATCC25904, 20 h, read-out: Antimicrobial activity (MIC in µg/ml) S. aureus.
Data set [2] has as its system P. aeruginosa (ATCC 47085). The experiment in a line: Minimal inhibition concentration. As to conditions: Pseudomonas aeruginosa, ATCC47085, 20 h, read-out: Antimicrobial activity (MIC in µg/ml) P. aeruginosa. The data set is classed as cell-based.
The test system of data set [3] is K. pneumoniae (ATCC27736). In words: Minimal inhibition concentration. The data set is classed as cell-based. As to conditions: Klebsiella pneumoniae, ATCC27736, 20 h, read-out: Antimicrobial activity (MIC in µg/ml) K. pneumoniae.
For the next data set, the system named is E. coli (ATCC BAA-1025). In words: Minimal inhibition concentration. As to conditions: Escherichia coli, ATCCBAA1025, 20 h, read-out: Antimicrobial activity (MIC in µg/ml) E. coli. The data set is classed as cell-based.

`O=C(O)c1cn(C2CC2)c2cc(N3CCNCC3)c(F)cc2c1=O` [ciprofloxacin]: the “passages after which S. aureus began to develop resistance” value in the data set with S. aureus worked out at 10 passages.

For the compound RQIRIWFQWKRWKWKR [T2-10], in data set [1], the Blood test results is given as “no obvious changes”. In the data set “Organ”, the “organ-specific toxicity, tissue section images” value (“organ-specific toxicity” for short) is recorded as “did not observe organ-specific toxicity”.

RQIKIWFQWRRWKWKK [T1-5]: the Blood test results in data set [1] is reported as “no obvious changes”. Besides, the “organ-specific toxicity” value in “Organ” is given as “did not observe organ-specific toxicity”.

Consider `C[C@H]1COc2c(N3CCN(C)CC3)c(F)cc3c(=O)c(C(=O)O)cn1c23` [Levofloxacin], for which, in the data set with P. aeruginosa, the “bacteria on the infected wound after 24 h treatment” value amounted to 0 CFU. For the same compound, the MIC in the data set on S. aureus (ATCC 25904) amounted to 0.09 µg/mL (≈ 0.249 µM); in data set [2], 7.81 µg/mL (≈ 21.6 µM); in data set [3] it was 0.06 µg/mL (≈ 0.166 µM); in the data set on E. coli (ATCC BAA-1025) it was 2.93 µg/mL (≈ 8.11 µM).

With RQIKIWFQIRRWKWKK [T1-2], the Blood test results in data set [1] is given as “no obvious changes”. Moreover, in the data set “Organ”, the “organ-specific toxicity” value was “did not observe organ-specific toxicity”.

Regarding `CN[C@H](CC(C)C)C(=O)N[C@H]1C(=O)N[C@@H](CC(N)=O)C(=O)N[C@H]2C(=O)N[C@H]3C(=O)N[C@H](C(=O)N[C@H](C(=O)O)c4cc(O)cc(O)c4-c4cc3ccc4O)[C@H](O)c3ccc(c(Cl)c3)Oc3cc2cc(c3O[C@@H]2O[C@H](CO)[C@@H](O)[C@H](O)[C@H]2O[C@H]2C[C@](C)(N)[C@H](O)[C@H](C)O2)Oc2ccc(cc2Cl)[C@H]1O` [Vancomycin], the MIC in data set [3] amounted to 1000 µg/mL (≈ 690 µM).
